From patent US20230293432A1, “POLYMERIC MICELLES COMPRISING GLUCURONIDE-PRODRUGS” (Rheinisch-Westfälische Technische Hochschule (RWTH), priority 2020, published 2023)

Tested on: breast cancer 4T1 cells
Assay: In vitro calreticulin (CRT) translocation by flow cytometry
Assay type: cell-based
Details: anti-CRT antibody staining, vs untreated control, FIG. 6A
Description: In a further experiment the ability of doxorubicin and doxorubicin double spacer prodrug and doxorubicin double spacer prodrug in polymeric micelles to induce immunogenicity of tumor cells was assessed in vitro. As one of the most studied phenotypes of immunogenic cell death, calreticulin (CRT) […] to outer surface of cancer cells is able to attract antigen presenting cells to endocytose apoptotic cancer cells. CRT translocation was measured by flow cryometry. To assess CRT translocation induced by the formulations, they were added to breast cancer 4T1 cells which were cultured overnight at 37° C. in RPMI 1640 medium containing 10% FBS and 1% penicillin. After incubation, the cells were washed with PBS and then detached. The CRT translocated to the outer surface of the cells was labeled with anti-CRT antibodies.

## COc1cccc2c1C(=O)c1c(O)c3c(c(O)c1C2=O)C[C@@](O)(C(=O)CO)C[C@@H]3O[C@H]1C[C@H](N)[C@H](O)[C@H](C)O1 [DOX, doxorubicin]
  signal of CRT in flow cytometry plots: higher signal of CRT compared to untreated control
